Experimental data reported in patent US20050148653A1, “Polymaleimide compounds and their medical use” (priority 2001, published 2005).

Columns and labels:
[1] = system: HIV (IHV-1RF); assay: Anti-viral (virucidal) assay: plate-bound HIV treated 10 minutes, C8166 cells added, syncytium score and XTT; assay type: cell-based; conditions: for Syncytia score day 5 (quadruplicate wells) / Syncytia score day 6 (quadruplicate wells): C8166 cells; for Mean Optical Readings at 450 nm: XTT cell viability; for Syncytia score day 6 (quadruplicate wells) / Mean Optical Readings at 450 nm / IC50: day 6; for IC50: XTT, virus treated 10 minutes, read-out: IC50 (virucidal)
Description: HIV was attached to the surface of 96-well cell culture plates using 100 μl of 50 μg/ml poly-L-lysine hydrobromide (PLL) of molecular weight >300 K for 1 h at RT. The outer wells were left uncoated and filled with 250 μl of PBS to counteract the effects of evaporation. The coated wells were washed twice with PBS and 25 μl of RPMI 1640 medium containing 5×10^3 TCID50 of IHV-1RF was added and incubated for 1 h at RT. The wells were then washed twice with PBS and 25 μl of varying concentrations of the test compounds made up with serum free medium (containing a constant 10% DMSO) were added to the wells in quadruplicate and the plates incubated at 37° C. for 10 minutes. The wells were again washed twice with PBS and 5×10^4 C8166 cells in a volume of 300 μl distributed to each well and the plates incubated for 5 and 6 days respectively. On days 5 and 6 the cells were assessed microscopically for the presence of cytopathic effect (syncytium formation) and recorded. In order to quantify the cytopathic effect, XIT which is metabolised by viable but not dead cells, was added and the absorbance read at 450 nm after […] incubation at 37° C.
An assessment of viral cytopathic effect was made microscopically on days 5 and 6, but the end point of the experiment was on day 6 when the level of virus infection (as determined by cell viability) was quantified by the use of XTT.

[2] = system: Chlamydia trachomatis; assay: Chlamydia assay: transient treatment of Chlamydia with maleimides, infection of McCoy cells, iodine-stained inclusions counted; assay type: cell-based; conditions: for IODINE-STAINED INCLUSIONS/FIELD F1: field 1; for IODINE-STAINED INCLUSIONS/FIELD F2: field 2; for IODINE-STAINED INCLUSIONS/FIELD F3: field 3; for IODINE-STAINED INCLUSIONS/FIELD F4: field 4; for IODINE-STAINED INCLUSIONS/FIELD F5: field 5; for MEAN COUNT/FIELD (iodine-stained inclusions): mean of 5 fields; for TOTAL COUNT/FIELDS (iodine-stained inclusions): sum of 5 fields; for COMMENTS: inclusions seen on entire coverslip: re-examined under low power; for inhibition of the infection of McCoy cells with chlamydia: transient exposure of chlamydia to compound
Description: Purified Chlamydia trachomatis (250 μl) was added to 250 μl of each compound concentration and the mixtures incubated at room temperature for 5 minutes. The tubes were then centrifuged (15000 rpm, 15 minutes), the supernatant decanted and the pellet washed serum free MEM (with 0.5 mls). This step was repeated and the resultant pellet resuspended MEM (in 0.5 ml) and inoculated into a confluent shell vial (coverslip) cultures of McCoy cells. The cultures were centrifuged (3000 rpm, 1 hour at 37° C.) and incubated for a further 2 hours prior to being changed onto MEM with 10% foetal calf serum, I μg/rl cycloheximide, 0.5% added glucose, vancomycin, streptomycin and amphoteracin B (Fungizone). The cultures were incubated for 68 hours, fixed in methanol and stained with Lugol's iodine. 3 replicates of each positive control (with and without DMSO) were included, as well as 2 uninoculated cell controls. Each coverslip culture was examined using low power (10×) objective to ensure that inclusions were evenly distributed and 5 high power (×40) fields were selected at random from different areas of the coverslip. Iodine stained inclusions were counted. Where no inclusions were seen on high power, the culture was re-examined under low power. Table 1. Effect of Transient Treatment with maleimides on Chlamydia Infection of McCoy Cell In Vitro. Chlamydia was pre-treated with each of the indicated maleimides for 5 minutes and the compound removed by centrifugation. McCoy cells were then exposed to the compound pre-treated chlamydia for 68 hours and inclusions counted following staining of cells with Lugols iodine.

[3] = Human immunodeficiency virus 1, C8166
[4] = final conc 0.02 (M), working conc 0.04 (M)
[5] = final conc 0.4 (M), working conc 0.8 (M)
[6] = final conc 1 (M), working conc 2 (M), 5 minutes pre-treatment, McCoy cells 68 hours
[7] = final conc 1 (M), working conc 2 (M)

## O=C1C=CC(=O)N1c1ccc(OCCOCCOCCOCCOc2ccc(N3C(=O)C=CC3=O)cc2)cc1 [Compound 2, PEG(5) bis phenyl bis maleimide]
[1]; Conc 0.003 mM
  Syncytia score day 5 (quadruplicate wells): ++++ (50-100% syncytia)
  Syncytia score day 6 (quadruplicate wells): ++++ (50-100% syncytia)
  Mean Optical Readings at 450 nm: 0.4883
[1]; Conc 0.01 mM
  Syncytia score day 5 (quadruplicate wells): ++++ (50-100% syncytia)
  Syncytia score day 6 (quadruplicate wells): ++++ (50-100% syncytia)
  Mean Optical Readings at 450 nm: 0.4895
[1]; Conc 0.03 mM
  Syncytia score day 5 (quadruplicate wells): ++++ (50-100% syncytia)
  Syncytia score day 6 (quadruplicate wells): ++++ (50-100% syncytia)
  Mean Optical Readings at 450 nm: 0.4928
[1]; Conc 0.1 mM
  Syncytia score day 5 (quadruplicate wells): ++++ (50-100% syncytia)
  Syncytia score day 6 (quadruplicate wells): ++++ (50-100% syncytia)
  Mean Optical Readings at 450 nm: 0.4983
[1]; Conc 0.3 mM
  Syncytia score day 5 (quadruplicate wells): +++ (25-50% syncytia)
  Syncytia score day 6 (quadruplicate wells): ++++ (50-100% syncytia)
  Mean Optical Readings at 450 nm: 0.5092
[1]; Conc 1 mM
  Mean Optical Readings at 450 nm: 0.9895
[1]; [3]
  IC50: ~1000 µM
[1]; Human immunodeficiency virus 1, C8166, at 1 mM
  inhibition at 1000 µM: ~50%
[2]; [4]
  IODINE-STAINED INCLUSIONS/FIELD F1: 3 inclusions/field
  IODINE-STAINED INCLUSIONS/FIELD F2: 2 inclusions/field
  IODINE-STAINED INCLUSIONS/FIELD F3: 6 inclusions/field
  IODINE-STAINED INCLUSIONS/FIELD F4: 5 inclusions/field
  IODINE-STAINED INCLUSIONS/FIELD F5: 7 inclusions/field
  MEAN COUNT/FIELD (iodine-stained inclusions): 5 inclusions/field
  TOTAL COUNT/FIELDS (iodine-stained inclusions): 23
[2]; [5]
  IODINE-STAINED INCLUSIONS/FIELD F1: 1 inclusions/field
  IODINE-STAINED INCLUSIONS/FIELD F2: 2 inclusions/field
  IODINE-STAINED INCLUSIONS/FIELD F3: 2 inclusions/field
  IODINE-STAINED INCLUSIONS/FIELD F4: 1 inclusions/field
  IODINE-STAINED INCLUSIONS/FIELD F5: 5 inclusions/field
  MEAN COUNT/FIELD (iodine-stained inclusions): 2 inclusions/field
  TOTAL COUNT/FIELDS (iodine-stained inclusions): 11
[2]; [6]
  IODINE-STAINED INCLUSIONS/FIELD F1: 0 inclusions/field
[2]; [7]
  IODINE-STAINED INCLUSIONS/FIELD F2: 0 inclusions/field
  IODINE-STAINED INCLUSIONS/FIELD F3: 0 inclusions/field
  IODINE-STAINED INCLUSIONS/FIELD F4: 0 inclusions/field
  IODINE-STAINED INCLUSIONS/FIELD F5: 0 inclusions/field
  MEAN COUNT/FIELD (iodine-stained inclusions): 0 inclusions/field
  COMMENTS: inclusions seen on entire coverslip: 6 inclusions
  TOTAL COUNT/FIELDS (iodine-stained inclusions): 0
[2]
  inhibition of the infection of McCoy cells with chlamydia: dose-dependent inhibition

## O=C1C=CC(=O)N1CCN1C(=O)C=CC1=O [Compound 1, ethyl bis-maleimide]
[1]; Conc 0.003 mM
  Syncytia score day 5 (quadruplicate wells): ++++ (50-100% syncytia)
  Syncytia score day 6 (quadruplicate wells): ++++ (50-100% syncytia)
  Mean Optical Readings at 450 nm: 0.4875
[1]; Conc 0.01 mM
  Syncytia score day 5 (quadruplicate wells): ++++ (50-100% syncytia)
  Syncytia score day 6 (quadruplicate wells): ++++ (50-100% syncytia)
  Mean Optical Readings at 450 nm: 0.5028
[1]; Conc 0.03 mM
  Syncytia score day 5 (quadruplicate wells): ++++ (50-100% syncytia)
  Syncytia score day 6 (quadruplicate wells): ++++ (50-100% syncytia)
  Mean Optical Readings at 450 nm: 0.5142
[1]; Conc 0.1 mM
  Syncytia score day 5 (quadruplicate wells): ++++ (50-100% syncytia)
  Syncytia score day 6 (quadruplicate wells): ++++ (50-100% syncytia)
  Mean Optical Readings at 450 nm: 0.5347
[1]; Conc 0.3 mM
  Syncytia score day 5 (quadruplicate wells): +++ (25-50% syncytia)
  Syncytia score day 6 (quadruplicate wells): +++ (25-50% syncytia)
  Mean Optical Readings at 450 nm: 0.5853
[1]; Conc 1 mM
  Mean Optical Readings at 450 nm: 1.181
[1]; [3]
  IC50: 1000 µM
[2]; [4]
  IODINE-STAINED INCLUSIONS/FIELD F1: 0 inclusions/field
  IODINE-STAINED INCLUSIONS/FIELD F2: 0 inclusions/field
  IODINE-STAINED INCLUSIONS/FIELD F3: 0 inclusions/field
  IODINE-STAINED INCLUSIONS/FIELD F4: 0 inclusions/field
  IODINE-STAINED INCLUSIONS/FIELD F5: 0 inclusions/field
  MEAN COUNT/FIELD (iodine-stained inclusions): 0 inclusions/field
  COMMENTS: inclusions seen on entire coverslip: 6 inclusions
  TOTAL COUNT/FIELDS (iodine-stained inclusions): 0
[2]; [5]
  IODINE-STAINED INCLUSIONS/FIELD F1: 0 inclusions/field
  IODINE-STAINED INCLUSIONS/FIELD F2: 0 inclusions/field
  IODINE-STAINED INCLUSIONS/FIELD F3: 0 inclusions/field
  IODINE-STAINED INCLUSIONS/FIELD F4: 0 inclusions/field
  IODINE-STAINED INCLUSIONS/FIELD F5: 0 inclusions/field
  MEAN COUNT/FIELD (iodine-stained inclusions): 0 inclusions/field
  COMMENTS: inclusions seen on entire coverslip: No
  TOTAL COUNT/FIELDS (iodine-stained inclusions): 0
[2]; [6]
  IODINE-STAINED INCLUSIONS/FIELD F1: 0 inclusions/field
[2]; [7]
  IODINE-STAINED INCLUSIONS/FIELD F2: 0 inclusions/field
  IODINE-STAINED INCLUSIONS/FIELD F3: 0 inclusions/field
  IODINE-STAINED INCLUSIONS/FIELD F4: 0 inclusions/field
  IODINE-STAINED INCLUSIONS/FIELD F5: 0 inclusions/field
  MEAN COUNT/FIELD (iodine-stained inclusions): 0 inclusions/field
  COMMENTS: inclusions seen on entire coverslip: No
  TOTAL COUNT/FIELDS (iodine-stained inclusions): 0
[2]
  inhibition of the infection of McCoy cells with chlamydia: dose-dependent inhibition
